“Also recorded” adds a separate entry of the source. Read-outs that look alike come from different tables or passages of the source.
Experiments:
[1] = cited from earlier work
[2] = Mouse liver microsomal stability
human EP4 receptor = human EP4 receptor (Homo sapiens, UniProt P35408); assay: Cell-based cAMP TR-FRET assay, Schild KB against PGE2 at EP4; details: for S.I (EP4/EP2): selectivity index EP4 KB/EP2 KB
human IP receptor = human IP receptor (Homo sapiens, UniProt P43119); assay: Cell-based cAMP TR-FRET assay, Schild KB against iloprost at IP; details: for S.I (IP/EP2): selectivity index IP KB/EP2 KB
[3] = Solubility in simulated gastric fluid pH 2.0 by nephelometry; type: physicochemical
MDR1-MDCK cell line [4] = tested on: MDR1-MDCK cell line
human EP2 receptor = human EP2 receptor (Homo sapiens, UniProt P43116); assay: Cell-based cAMP TR-FRET assay, Schild KB against PGE2 at EP2; details: for fold less EP2 potency in comparison to 2a: comparator 2a; for fold less potent than equivalent nicotinic derivative: 11a vs 8b, 11b vs 8g, 11c vs 8f
[5] = 24 h shake flask thermodynamic solubility in neat water; type: physicochemical
human DP1 receptor = biological target: T1, human DP1 receptor (Homo sapiens, UniProt Q13258); assay: Cell-based cAMP TR-FRET assay, Schild KB against BW245C at DP1; details: for S.I. (DP1/EP2): selectivity index DP1 KB/EP2 KB
T1 sequence (Q13258 1-359): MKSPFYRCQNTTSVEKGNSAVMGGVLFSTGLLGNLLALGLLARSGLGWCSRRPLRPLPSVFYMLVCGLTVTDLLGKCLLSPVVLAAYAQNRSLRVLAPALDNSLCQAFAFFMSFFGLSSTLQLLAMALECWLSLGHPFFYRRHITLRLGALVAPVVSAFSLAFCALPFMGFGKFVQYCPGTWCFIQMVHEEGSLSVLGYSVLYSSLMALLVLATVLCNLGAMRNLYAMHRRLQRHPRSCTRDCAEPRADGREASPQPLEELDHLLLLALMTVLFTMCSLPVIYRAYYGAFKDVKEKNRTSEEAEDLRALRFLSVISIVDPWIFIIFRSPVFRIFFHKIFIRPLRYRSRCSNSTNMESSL

[6] = Metabolite identification in mouse liver microsomes; type: in vitro ADME; details: 20 min incubation, LC-MS/MS
[7] = Mouse pharmacokinetics and brain-to-plasma ratio; type: in vivo
[8] = Kinetic aqueous solubility in PBS pH 7.4 by nephelometry; type: physicochemical; details: comparator 2a
MDR1-MDCK cell line [9] = assay: Permeability across MDR1-expressed MDCK cell monolayers
[10] = Human liver microsomal stability; type: in vitro ADME; details: 1 μM compound, 0.5 mg/mL human liver microsomes (compounds 1 and 3)

Chain of human EP4 receptor (P35408 whole entry): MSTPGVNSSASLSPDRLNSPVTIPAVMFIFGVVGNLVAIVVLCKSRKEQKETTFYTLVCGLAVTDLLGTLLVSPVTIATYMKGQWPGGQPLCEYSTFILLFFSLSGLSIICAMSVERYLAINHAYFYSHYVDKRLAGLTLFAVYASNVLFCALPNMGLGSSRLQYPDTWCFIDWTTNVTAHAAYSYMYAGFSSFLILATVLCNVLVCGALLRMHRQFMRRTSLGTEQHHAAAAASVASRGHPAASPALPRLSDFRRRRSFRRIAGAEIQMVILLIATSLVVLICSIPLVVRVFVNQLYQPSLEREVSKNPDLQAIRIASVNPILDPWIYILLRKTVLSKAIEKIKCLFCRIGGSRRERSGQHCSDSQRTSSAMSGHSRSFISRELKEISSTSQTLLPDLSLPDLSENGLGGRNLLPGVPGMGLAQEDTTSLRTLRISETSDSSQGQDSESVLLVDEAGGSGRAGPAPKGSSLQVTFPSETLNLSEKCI
Chain of human EP2 receptor (P43116 whole entry): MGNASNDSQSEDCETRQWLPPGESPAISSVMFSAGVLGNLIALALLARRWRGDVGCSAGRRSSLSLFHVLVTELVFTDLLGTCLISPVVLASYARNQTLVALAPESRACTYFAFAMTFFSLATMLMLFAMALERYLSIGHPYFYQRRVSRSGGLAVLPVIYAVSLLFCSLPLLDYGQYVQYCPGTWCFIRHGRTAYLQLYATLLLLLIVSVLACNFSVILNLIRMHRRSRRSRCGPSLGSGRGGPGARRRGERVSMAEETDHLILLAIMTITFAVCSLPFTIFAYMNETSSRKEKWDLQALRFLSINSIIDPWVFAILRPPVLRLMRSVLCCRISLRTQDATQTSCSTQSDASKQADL
Chain of human IP receptor (P43119 whole entry): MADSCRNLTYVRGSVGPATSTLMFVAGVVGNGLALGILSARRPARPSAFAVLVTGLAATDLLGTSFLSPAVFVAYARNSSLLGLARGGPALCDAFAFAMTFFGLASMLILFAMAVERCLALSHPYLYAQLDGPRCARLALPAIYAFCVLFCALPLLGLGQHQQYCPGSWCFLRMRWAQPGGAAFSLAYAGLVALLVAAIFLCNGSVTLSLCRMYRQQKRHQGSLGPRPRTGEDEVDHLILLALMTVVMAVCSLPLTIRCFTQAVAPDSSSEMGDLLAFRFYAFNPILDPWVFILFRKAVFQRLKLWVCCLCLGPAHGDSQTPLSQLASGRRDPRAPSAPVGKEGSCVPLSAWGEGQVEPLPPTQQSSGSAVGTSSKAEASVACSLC

For Cc1[nH]c2ccccc2c1CCNC(=O)c1ccc(N2CCOCC2)cc1 [2a], the “half-life in mouse liver microsomes” value [1] is given as less than 2 min and the half-life at 1 μM ([2]; mouse, pooled liver microsomes) is given as less than 2 min.

For Cc1cccc(Nc2ncc(C(=O)NCCc3c(C)[nH]c4ccccc34)cn2)n1 [20e, N-(2-(2-Methyl-1H-indol-3-yl)ethyl)-2-((6-methylpyridin-2-yl)amino)pyrimidine-5-carboxamide], the “S.I (EP4/EP2)” value (human EP4 receptor) was greater than 1500 and the “S.I (IP/EP2)” value (human IP receptor) was greater than 1500.

With Cc1cc(C)nc(Nc2ncc(C(=O)NCCc3c(C)[nH]c4ccc(Cl)cc34)cn2)c1 [24b, N-(2-(5-Chloro-2-methyl-1H-indol-3-yl)ethyl)-2-((4,6-dimethylpyridin-2-yl)amino)pyrimidine-5-carboxamide] the Kb (human EP4 receptor) was greater than 10 µM, the “S.I (EP4/EP2)” value (human EP4 receptor) was greater than 350 and the Kb (human IP receptor) was greater than 10 µM. For the same molecule, the “S.I (IP/EP2)” value (human IP receptor) was greater than 350.

With Cc1cc(C)nc(Nc2ncc(C(=O)NCCc3c(C)[nH]c4ccccc34)cn2)c1 [20o, 2-((4,6-Dimethylpyridin-2-yl)amino)-N-(2-(2-methyl-1H-indol-3-yl)ethyl)pyrimidine-5-carboxamide] the solubility [3] was greater than 250 µM, the “efflux pump substrate status” value (MDR1-MDCK cell line [4]) was “not the substrate of efflux pumps” and the “Permeability across MDR1-MDCK cell line, A-B” value (MDR1-MDCK cell line [4]; dog) was “B-A: 22.2 × 10^−6 cm/s A-B: 13.2 × 10^−6 cm/s”. For the same molecule, the “Permeability across MDR1-MDCK cell line, B-A” value (MDR1-MDCK cell line [4]; dog) was “B-A: 22.2 × 10^−6 cm/s A-B: 13.2 × 10^−6 cm/s”.

In the case of Cc1ccc(Nc2ncc(C(=O)NCCc3c(C)[nH]c4ccccc34)cn2)c(C)n1 [20r, 2-((2,6-Dimethylpyridin-3-yl)amino)-N-(2-(2-methyl-1H-indol-3-yl)ethyl)pyrimidine-5-carboxamide], the “fold reduced EP2 potency” value (human EP2 receptor; comparator not clearly stated) is reported as 10 fold.

For Cc1cc(C)nc(Nc2ncc(C(=O)NCC(=O)c3c(C)[nH]c4ccccc34)cn2)c1 [24h, 2-((4,6-Dimethylpyridin-2-yl)amino)-N-(2-(2-methyl-1H-indol-3-yl)-2-oxoethyl)pyrimidine-5-carboxamide], the “EP2 potency in words” value (human EP2 receptor) was “eliminated the potency”.

With Cc1cc(C)nc(Nc2ncc(C(=O)NCCc3c(C)[nH]c4c(Cl)cc(Cl)cc34)cn2)c1.Cl [24d.HCl] the “Water solubility of corresponding HCl salt” value ([5]; HCl salt, neat water, 2 mg/mL, 24 h shake flask, HPLC) was “c The solubility of compounds measured in simulated gastric fluid at pH 2.0 by nephelometry. Compound 24dis a milky-white solution in DMSO and 24 h is an inactive compound. Therefore, their solubility is not determined by nephelometry, however, 24d.HClis highly water soluble”.

With Cc1[nH]c2ccccc2c1CCNC(=O)c1cnc(Nc2ccccn2)nc1 [20a, N-(2-(2-Methyl-1H-indol-3-yl)ethyl)-2-(pyridin-2-ylamino)pyrimidine-5-carboxamide] the “S.I. (DP1/EP2)” value (human DP1 receptor) was greater than 900 and the “S.I (IP/EP2)” value (human IP receptor) was greater than 900.

In the case of Cc1cc(C)nc(Nc2ncc(C(=O)NCCc3c(C(F)(F)F)[nH]c4ccccc34)cn2)c1 [24f, 2-((4,6-Dimethylpyridin-2-yl)amino)-N-(2-(2-(trifluoromethyl)-1H-indol-3-yl)ethyl)pyrimidine-5-carboxamide], the “fold reduced EP2 potency in comparison to 20o” value (human EP2 receptor; comparator 20o) is reported as 8 fold.

With Cc1[nH]c2ccccc2c1CCNC(=O)c1ccc(-c2ccccc2F)nc1 [8e, 6-(2-Fluorophenyl)-N-(2-(2-methyl-1H-indol-3-yl)ethyl)nicotinamide] the “fold less EP2 potency in comparison to 2a” value (human EP2 receptor) was 2 fold and the “fold less EP2 potency in comparison to 8c” value (human EP2 receptor; comparator 8c (14b: vs. 14c or 8c)) was 4 fold.

In the case of Cc1cc(C)nc(Nc2ncc(C(=O)NCCc3c(C)[nH]c4c(F)cc(F)cc34)cn2)c1 [24c, N-(2-(5,7-Difluoro-2-methyl-1H-indol-3-yl)ethyl)-2-((4,6-dimethylpyridin-2-yl)amino)pyrimidine-5-carboxamide], the solubility ([3]; simulated gastric fluid) is reported as greater than 100 µM, the Kb (human IP receptor) is reported as greater than 10 µM and the “S.I (IP/EP2)” value (human IP receptor) is reported as greater than 500.

With Cc1[nH]c2ccccc2c1CCNC(=O)c1cnc(Nc2cccnc2)nc1 [20q, N-(2-(2-Methyl-1H-indol-3-yl)ethyl)-2-(pyridin-3-ylamino)pyrimidine-5-carboxamide] the Kb (human EP4 receptor) was greater than 10 µM, the “S.I (EP4/EP2)” value (human EP4 receptor) was greater than 1200 and the Kb (human IP receptor) was greater than 10 µM. The “S.I (IP/EP2)” value (human IP receptor) was greater than 1200.

With Cc1[nH]c2ccccc2c1CCNC(=O)c1cnc(Nc2cccc(F)n2)nc1 [20f, 2-((6-Fluoropyridin-2-yl)amino)-N-(2-(2-methyl-1H-indol-3-yl)ethyl)pyrimidine-5-carboxamide] the “fold higher half-life in mouse liver microsomes” value ([2]; 24i vs 20o, 20c vs 20b, 20f vs 20e) was 8 fold.

For Cc1[nH]c2ccccc2c1CCNC(=O)c1ccc(-c2nnn[nH]2)cc1 [compound 3], the “metabolic fragments in mouse liver microsomes” value [6] is given as “did not produce any fragments even after 20 minutes of incubation; also recorded: has not shown any metabolic fragments even after 20 min of incubation” and the “stability in mouse liver microsomes” value [1] is given as greater than 60 min.

With COc1ccccc1-c1ncc(C(=O)NCCc2c(C)[nH]c3ccccc23)cn1 [14a, 2-(2-Methoxyphenyl)-N-(2-(2-methyl-1H-indol-3-yl)ethyl)pyrimidine-5-carboxamide] the solubility ([3]; simulated gastric fluid) was greater than 100 µM, the “S.I (EP4/EP2)” value (human EP4 receptor) was 517 and the “S.I (IP/EP2)” value (human IP receptor) was 730.

In the case of COc1cccc(-c2ccc(C(=O)NCCc3c(C)[nH]c4ccccc34)nc2)c1 [11a, 5-(3-Methoxyphenyl)-N-(2-(2-methyl-1H-indol-3-yl)ethyl)picolinamide], the “fold less potent than equivalent nicotinic derivative” value (human EP2 receptor) is reported as 4 fold.

For COc1cc(OC)cc(-c2ccc(C(=O)NCCc3c(C)[nH]c4ccccc34)nc2)c1 [11b, 5-(3,5-Dimethoxyphenyl)-N-(2-(2-methyl-1H-indol-3-yl)ethyl)picolinamide], the “fold less potent than equivalent nicotinic derivative” value (human EP2 receptor) was 11 fold.

For Cc1cc(C)nc(Nc2ncc(C(=O)NCCc3c(C)[nH]c4ccccc34)cn2)c1.Cl [20o.HCl, 2-((4,6-Dimethylpyridin-2-yl)amino)-N-(2-(2-methyl-1H-indol-3-yl)ethyl)pyrimidine-5-carboxamide.Hydrochloride], the “water pH after dissolving the compound” value ([5]; 2 mg/mL in neat water, starting pH 6.4) was 3.5.

In the case of CC(=O)c1ccc(Nc2ncc(C(=O)NCCc3c(C)[nH]c4ccccc34)cn2)nc1 [20l, 2-((5-Acetylpyridin-2-yl)amino)-N-(2-(2-methyl-1H-indol-3-yl)ethyl)pyrimidine-5-carboxamide], the “fold reduced EP2 potency in comparison to 20b” value (human EP2 receptor; comparator 20b) is reported as 20 fold.

For Cc1[nH]c2ccccc2c1CCNC(=O)c1cnc(Nc2cc(F)ccn2)nc1 [20c, 2-((4-Fluoropyridin-2-yl)amino)-N-(2-(2-methyl-1H-indol-3-yl)ethyl)pyrimidine-5-carboxamide], the “in vivo stability in words” value ([7]; mouse, in vivo) was “unstable in vivo”, the “S.I (EP4/EP2)” value (human EP4 receptor) was greater than 1500 and the “S.I (IP/EP2)” value (human IP receptor) was greater than 1500.

For COc1cccc(Nc2ncc(C(=O)NCCc3c(C)[nH]c4ccccc34)cn2)n1 [20h, 2-((6-Methoxypyridin-2-yl)amino)-N-(2-(2-methyl-1H-indol-3-yl)ethyl)pyrimidine-5-carboxamide], the Kb (human DP1 receptor) was greater than 10 µM, the “S.I. (DP1/EP2)” value (human DP1 receptor) was greater than 1280 and the Kb (human IP receptor) was greater than 10 µM. For the same molecule, the “S.I (IP/EP2)” value (human IP receptor) was greater than 1280.

For Cc1[nH]c2ccccc2c1CCNC(=O)c1ccc(N2CCOCC2)nc1 [2b, N-(2-(2-Methyl-1H-indol-3-yl)ethyl)-6-morpholinonicotinamide], the “fold less EP2 potency in comparison to 2a” value (human EP2 receptor) was 4 fold and the “fold increased aqueous solubility” value [8] was 3 fold.

With COc1cc(/C=C/C(=O)NCCn2c(C(F)(F)F)cc3ccccc32)cc(OC)c1OC [compound 1] the “In vivo plasma t1/2” value ([7]; mice, ip/po, 10 mg/kg dose) was 1.7 (ip/po, 10 mg/kg dose) h, the “Permeability across MDR1-MDCK cell line, A-B” value (MDR1-MDCK cell line [9]; apical-to-basolateral) was 25.4 ×10⁻⁶ cm/s and the “Permeability across MDR1-MDCK cell line, B-A” value (MDR1-MDCK cell line [9]; basolateral-to-apical) was 27.1 ×10⁻⁶ cm/s. The “HLM t1/2” value [10] was 11 min and the “MLM t1/2” value ([2]; 1 μM compound, 0.5 mg/mL mouse liver microsomes (compounds 1 and 3)) was 10 min.

For Cc1[nH]c2ccccc2c1CCNC(=O)c1cnc(Nc2ccncc2)nc1 [20p, N-(2-(2-Methyl-1H-indol-3-yl)ethyl)-2-(pyridin-4-ylamino)pyrimidine-5-carboxamide], the “EP2 potency in words” value (human EP2 receptor) was “complete loss of potency”.
